{"source": "patent US20020142436A1", "about": "“Human adenylate cyclase and use therefor” (priority 1995, published 2002)", "key": {"AtT20 cells [1]": {"tested_on": "AtT20 cells", "test": "CRF-induced cAMP accumulation in AtT20 cells", "format": "cell-based, mouse", "procedure": "Experiments for cAMP were all carried out in Hanks balanced salt solution containing 2 mM CaCl2 and 1 mM MgSO4 buffered with 25 mM HEPES pH 7.4 and supplemented with 0.25% (w/v) of bovine serum albumin. The cells were preincubated in serum free medium for 1 hour, after which blockers of phosphosdiesterase (isobutylmethylxanthine 0.5 mM (IBMX) and/or rolipram 0.1 mM) along with various other treatments were applied for 30 minutes at 37° C. Subsequently the cells were cooled to 22° C. for 5 minutes in a water bath and agonists were added for 10 minutes. The reaction was stopped by the addition of 0.2 mol/l HCl to achieve a final concentration of 0.1 mol/l (Brooker et al, (1979) Adv. in Cyclic Nucl. Res. Vol. 10, G. Brooker, P. Greengard and G. A. Robinson, Raven Press, New York, 2-34).\nIn some experiments cells were preincubated for 30 minutes in medium containing 2 mmol/l EGTA and no added Ca^2+, supplemented with 5 μmol/l A23187 and 2.5 μmol/l nifedipine in order to deplete rapidly mobilized cellular stores of Ca^2+. […] The rationale for this pretreatment is that calcineurin reportedly influences L-channel activity (Lai et al, (1993) J. Neurochem. 61:1333-1339; and Armstrong et al, (1987) Proc. Natl. Acad. Sci. U.S.A. 84:2518-2522), whereas the treatment regimen used here would make Ca^2+ entry independent of this regulation.\nThese compounds were made up in ethanol at 10^−3 mol/l and diluted with the incubation medium to the desired final concentrations. In some cases cells were preincubated with L685,818 the structural analogue of FK506 that binds to FKBP-12 and inhibits prolyl-isomerase activity but is devoid of immunosuppressant activity (Dumont et al, (1992) J. Exp. Med. 176:751-760) for 10 minutes before the addition of FK506 for 30 minutes at 37° C."}, "calcineurin [2]": {"tested_on": "calcineurin", "test": "calcineurin activity in AtT20 cells (phosphocasein method)", "format": "biochemical, mouse", "details": "1 μmol/l FK506, phosphocasein"}, "AtT20 cells [3]": {"tested_on": "AtT20 cells", "test": "ACTH release by AtT20 cells", "format": "cell-based, mouse"}, "HEK293 cells": {"tested_on": "HEK293 cells", "test": "CRF-induced and unstimulated cAMP in HEK293 cells without AC (wild type, sham or pcDNA3 vector)", "format": "cell-based, human", "details": "FK506 2 μmol/l, L-685,818 100 μmol/l", "description": "Both expression plasmids (10 μg) were transfected into SV40-transformed monkey embryonic kidney (COS-7) cells grown in DMEM and 10% fetal bovine serum to 70% confluency in 75 cm^2 flasks following the double DEAE-dextran transfection protocol (Ishikawa et al, (1992) Nucl. Acids Res. 20:4367), while only AC cDNA was transfected into adenovirus-transformed human embryonic kidney (HEK293) cells as these express endogenous receptors for CRF (F. A. Antoni, unpublished data). In control transfections pcDNA3 vector DNA replaced the AC expression construct. […]"}, "[4]": {"tested_on": "HEK293 cells transfected with AC", "test": "cAMP in HEK293 cells transiently transfected with AC", "format": "cell-based, human", "details": "L-685,818 100 μmol/l"}, "[5]": {"tested_on": "HEK293 cells stably expressing AC", "test": "cAMP production in HEK293 cell lines stably expressing AC", "format": "cell-based, human", "description": "In particular cell lines derived from the human embryonic kidney cell line 293 (HEK293) have been generated and stably express AC. Briefly, the cells were transfected with pcDNA3 containing the full length AC DNA (clone JP 173—see Example 3) and cells were selected on the basis of resistance to G418 antibiotic (0.8 mg/ml) for 4 weeks. Individual clones of resistant cells were expanded and tested for cAMP production in response to CRF and the effects of immunosuppressants were also examined."}, "[6]": {"tested_on": "HEK293 cells overexpressing human AC9", "test": "Ca2+/calcineurin inhibition of cAMP production in HEK293 cells overexpressing human AC9", "format": "cell-based", "procedure": "The complete coding sequence of human AC9 was cloned into the expression vector pcDNA3. This constuct and pcDNA3 (10 μg) were each linearised by PvuI digestion prior to electroporation into HEK293 cells. Stably transfected clones were selected for resistance to G418 (Gibco) at […] in Dulbecco's modified Eagle's medium (DMEM) supplemented with 10% foetal calf serum. A total of 12 clones were expanded and over-expression of human AC9 confirmed in 9 cell lines by immunoblotting using antisera raised against a pentadecapeptide derived from the N-terminus of mouse AC9 (Paterson et al, (1995) Biochem. Biophys. Res. Commun. 214:1000-8). […] Analysis of clone 7 is reported here.\nHEK-293 cells display complex intracellular Ca2+ handling mechanisms that may be controlled by cAMP and calcineurin (Lin et al, (1995) Mol. Pharmacol. 47:131-9; Gromada et al, (1995) FEBS Letts. 373:182-6; Querfurth et al, (1998) Biochem J. 334:79-86), and thus complicate the interpretation of the data. Therefore, intracellular stores of Ca^2+ were depleted to reduce the contribution of intracellular Ca^2+ pools to the intracellular free Ca^2+ signal. […] Two different Ca^2+ depletion protocols were used (Antoni et al, (1998) supra). […] The total cAMP content of the cells and the medium was determined after freeze-thawing and acetylation by radioimmunoassay (Antoni et al, (1995) J. Biol. Chem. 270:28055-61)."}, "FKBP-12": {"target": "FKBP-12 (Homo sapiens, UniProt P62942)", "sequence (P62942 whole entry, species assumed)": "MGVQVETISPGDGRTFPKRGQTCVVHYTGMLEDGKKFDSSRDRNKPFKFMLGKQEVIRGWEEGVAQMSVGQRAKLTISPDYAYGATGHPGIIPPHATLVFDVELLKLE", "details": "cited from earlier work"}, "calcineurin [7]": {"tested_on": "calcineurin", "details": "cited from earlier work"}}, "note": "“Also recorded” adds a separate entry of the source. Read-outs that look alike come from different tables or passages of the source.", "data": [{"smiles": "CC[C@@H]1/C=C(\\C)[C@@H](O)[C@H](C)C[C@H](OC)[C@H]2O[C@@](O)(C(=O)C(=O)N3CCCC[C@H]3C(=O)O[C@H](/C(C)=C/[C@@H]3CC[C@@H](O)[C@H](OC)C3)[C@H](C)[C@@H](O)CC1=O)[C@H](C)C[C@@H]2OC", "note": "[L685,818]", "values": [{"measurement": "cAMP formation, compound given alone", "setting": "AtT20 cells [1]", "value": "no discernible effect"}, {"measurement": "antagonism of the effect of FK506 on CRF-induced cAMP production", "setting": "AtT20 cells [1]; 10 nmol/l CRF", "value": "antagonized"}, {"measurement": "effect on the inhibition of calcineurin activity by FK506", "setting": "calcineurin [2]", "value": "blocked the inhibitory effect of FK506 on calcineurin-mediated dephosphorylation of phosphocasein"}, {"measurement": "ACTH secretion, compound given alone", "setting": "AtT20 cells [3]", "value": "no discernible effect; also recorded: no effect on basal ACTH secretion"}, {"measurement": "antagonism of the effect of FK506 on CRF-induced ACTH release", "setting": "AtT20 cells [3]; FK506 0.5 μmol/l", "value": "prevented"}, {"measurement": "cAMP levels in sham-transfected or pcDNA3-transfected cells", "setting": "HEK293 cells", "value": "no effect in sham-transfected or pcDNA3-transfected cells"}, {"measurement": "cAMP response to CRF", "setting": "[4]; FK506 2 μmol/l", "value": "no significant effect on CRF-induced cAMP production; also recorded: no effect on CRF-induced cAMP formation when given alone"}, {"measurement": "blockade of the enhancement of the CRF-induced cAMP response by FK506", "setting": "[4]; 1 nmol/l CRF", "value": "blocked the enhancement of the response to 1 nmol/l CRF by FK506"}, {"measurement": "blockade of the FK506 effect on CRF-induced cAMP production", "setting": "[5]", "value": "blocked"}, {"measurement": "cAMP production in hAC9 expressing cells", "setting": "[6]", "value": "had no effect on cAMP production"}, {"measurement": "inhibitory effect of Ca2+ on cAMP production", "setting": "[6]; FK506, cyclosporin A, rapamycin 10 μM, L685,818 50 μM, PDE blockers present", "value": "failed to block the inhibitory action of Ca^2+ on cAMP production"}, {"measurement": "FKBP-12 prolyl isomerase activity", "setting": "FKBP-12", "value": "potent inhibitor"}, {"measurement": "blockade of calcineurin", "setting": "calcineurin [7]", "value": "does not block calcineurin"}, {"measurement": "blockade of calcineurin", "setting": "calcineurin [7]; listed as L-685,818", "value": "do not inhibit calcineurin"}]}]}
